The values that follow come from patent publication US20080248487A1, “MODULATION OF PROTEIN FUNCTIONALITIES” (priority 2007, published 2008).

In the assay the target is T1, p38 MAP kinase (Homo sapiens, UniProt Q16539).
T1 construct: made in house; host or cells: E. coli
T1 sequence (Q16539 whole entry): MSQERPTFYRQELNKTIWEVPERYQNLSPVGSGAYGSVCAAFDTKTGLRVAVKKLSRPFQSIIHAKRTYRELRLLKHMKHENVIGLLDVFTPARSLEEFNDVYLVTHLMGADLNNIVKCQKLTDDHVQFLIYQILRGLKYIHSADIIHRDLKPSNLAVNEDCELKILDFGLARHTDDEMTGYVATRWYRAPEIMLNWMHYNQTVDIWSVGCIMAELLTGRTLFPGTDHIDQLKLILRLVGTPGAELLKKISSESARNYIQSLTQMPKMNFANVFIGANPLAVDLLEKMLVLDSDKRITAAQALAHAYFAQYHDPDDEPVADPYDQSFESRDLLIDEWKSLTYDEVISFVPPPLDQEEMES
Put plainly: P38 MAP kinase binding assay (competition with fluorescent probe SKF 86002). Particulars: time-dependent if the IC50 values decrease with the reaction time (more than two-fold in four hours). On the procedure: Thus, the ability of a small molecule to block fluoroprobe binding provides an experimental readout of binding to the switch control pocket. […] The reaction was initiated by addition of the enzyme. […] By comparison of rfu (relative fluorescence unit) values with that of a control (in the absence of small molecule modulators), the percentage of inhibition at each concentration of the small molecules were calculated. IC50 values for the small molecule modulators were calculated from the % inhibition values obtained at a range of concentrations of the small molecule modulators using Prism. When time-dependent inhibition was assessed, the plate was read at multiple reaction times such as 0.5, 1, 2, 3, 4 and 6 hours. The IC50 values were calculated at each time point. An inhibition was assigned as time-dependent if the IC50 values decrease with the reaction time (more than two-fold in four hours).
For the compound `CC1(C(=O)O)CC2(C)CC(C)(C1)C(=O)N(Cc1cccc(-n3nc(C(C)(C)C)cc3NC(=O)Nc3ccc(Cl)cc3)c1)C2=O` (stereo not shown) [Example 12], the Time-dependent result is recorded as “No”.

`CC1(C(=O)O)CC2(C)CC(C)(C1)C(=O)N(Cc1cccc(-n3nc(C(C)(C)C)cc3NC(=O)Nc3cccc4ccccc34)c1)C2=O` (stereo not shown) [Example 11]: the Time-dependent result is reported as “No”. For `CC(C)(C)c1cc(NC(=O)Nc2cccc3ccccc23)n(-c2cccc(CC(=O)N3CCOCC3)c2)n1` [Example 21, 1-{3-tert-butyl-1-[3-(2-morpholino-2-oxoethyl)phenyl]-1H-pyrazol-5-yl}-3-(naphthalene-1-yl)urea] the value was “Yes”; for `CC(C)(C)c1cc(NC(=O)Nc2cccc3ccccc23)n(-c2ccc(CN)cc2)n1` [Example 45, 1-{3-tert-butyl-1-[4-(aminomethyl)phenyl]-1H-pyrazol-5-yl}-3-(naphthalen-1-yl)urea], “No”.
